Values quoted from earlier work, collected in patent US20250101002A1, “DEUTERATED INFIGRATINIB COMPOUNDS” (QED Therapeutics, Inc., priority 2023, published 2025).
Structures can show the parent of a compound that is named as a salt.

Conditions: cholangiocarcinoma indication

CCN1CCN(c2ccc(Nc3cc(N(C)C(=O)Nc4c(Cl)c(OC)cc(OC)c4Cl)ncn3)cc2)CC1 [infigratinib monophosphate, Monophosphate Salt Form A of 3-(2,6-dichloro-3,5-dimethoxy-phenyl)-1-{6-4-(4-ethyl-piperazin-1-yl)-phenylaminol-pyrimidin-4-yl}-1-methyl-urea]
common adverse reactions (infigratinib monophosphate dosed at 125 mg): nail toxicity, stomatitis, dry eye, fatigue, alopecia, palmar-plantar erythrodyesthesia syndrome, arthralgia, dysgeusia, constipation, abdominal pain, dry mouth, eyelash changes, diarrhea, dry skin, decreased appetite, blurred vision, and vomiting
additional adverse reactions observed in corresponding clinical trials (infigratinib monophosphate): ocular toxicity, hyperphosphatemia and soft tissue mineralization, infections, anemia, pyrexia, abdominal pain, hypercalcemia, and sepsis
